PubChem BioAssay AID493146 (Sanford-Burnham Center for Chemical Genomics, 2011)
The source made the active and inactive calls. How the calls were made is not given here.

Biological target: intestinal alkaline phosphatase (Alpi), Mus musculus
Test: murine Alpi activation by analogs – biochemical, luminescence, SAR follow-up (AID 493146)
Conditions: purified mouse IAP, luminescent substrate

EC50, inactive:
O=C1/C(=C/c2ccco2)SC(=S)N1C1CCS(=O)(=O)C1 (stereo not given) > 100 µM, Cc1ccc(NC(=O)CCNS(=O)(=O)c2ccc3[nH]c(=O)oc3c2)cc1N(C)C > 100 µM, CC(C(=O)Nc1cccc(C(=O)O)c1)N1C(=O)/C(=C\c2ccco2)SC1=S (stereo not given) > 100 µM, O=C(CCNS(=O)(=O)c1ccc2[nH]c(=O)oc2c1)Nc1cccc(-c2ccno2)c1 > 100 µM, O=C(CN1C(=O)/C(=C/c2ccco2)SC1=S)NC1CCS(=O)(=O)C1 (stereo not given) > 100 µM, Cc1ccc(/C=C2\SC(=S)N(C3CCS(=O)(=O)C3)C2=O)o1 (stereo not given) > 100 µM, CC(C(=O)NCCc1ccc(O)c(O)c1)N1C(=O)/C(=C\c2ccco2)SC1=S (stereo not given) > 100 µM, CCOC(=O)N1CCN(S(=O)(=O)c2ccc3[nH]c(=O)oc3c2)CC1 > 100 µM, COc1cc([N+](=O)[O-])ccc1NC(=S)NCCC(c1ccccc1)c1ccccc1 > 100 µM, O=C(CN1C(=O)/C(=C\c2ccco2)SC1=S)Nc1ccc(O)cc1C(=O)O > 100 µM, N#Cc1c(SCC(=O)Nc2ccc(Cl)cc2Cl)sc2c(O)cc(=O)[nH]c12 > 100 µM, O=C(NN=Cc1cccnc1)c1cc(O)c(O)c(O)c1 > 100 µM, O=C(CN1C(=O)/C(=C/c2ccco2)SC1=S)N[C@@H]1CSC[C@@H]1O > 100 µM, COc1cc(Cl)c(C)cc1NC(=O)CSc1sc2c(O)cc(=O)[nH]c2c1C#N > 100 µM, O=C(N/N=C/c1ccsc1)c1cc(O)c(O)c(O)c1 > 100 µM, O=C(O)CC(C(=O)O)N1C(=O)/C(=C/c2ccc(-c3nc4ccccc4s3)o2)SC1=S (stereo not given) > 100 µM, N#Cc1c(SCC(=O)Nc2nccs2)sc2c(O)cc(=O)[nH]c12 > 100 µM, O=C(CN1C(=O)/C(=C/c2ccco2)SC1=S)Nc1cccc(C(=O)O)c1 > 100 µM, COc1cc(C(=O)NNc2nc3cc4c(cc3s2)OCO4)cc(OC)c1OC > 100 µM, CCOc1ccccc1CNC(=O)CCNS(=O)(=O)c1ccc2[nH]c(=O)oc2c1 > 100 µM, COC(=O)c1ccc(C)c(NC(=O)CSc2sc3c(O)cc(=O)[nH]c3c2C#N)c1 > 100 µM, CC(C(=O)N(C)C1CCS(=O)(=O)C1)N1C(=O)/C(=C/c2ccco2)SC1=S (stereo not given) > 100 µM, Cc1ccc(NC(=O)CCNS(=O)(=O)c2ccc3[nH]c(=O)oc3c2)cc1 > 100 µM, O=S(=O)(Nc1ncccn1)c1ccc(NC(=S)NCCC(c2ccccc2)c2ccccc2)cc1 > 100 µM, O=C(C1CCN(S(=O)(=O)c2ccc3[nH]c(=O)oc3c2)CC1)N1CC=C(c2ccccc2)CC1 > 100 µM, Cc1cc(NC(=O)CSc2sc3c(O)cc(=O)[nH]c3c2C#N)ccc1Br > 100 µM, O=C(CCN1C(=O)/C(=C/c2ccco2)SC1=S)Nc1ccc(O)cc1C(=O)O > 100 µM, O=C(c1ccco1)N1CCN(S(=O)(=O)c2ccc3[nH]c(=O)oc3c2)CC1 > 100 µM, N#Cc1cccc(NC(=O)CCNS(=O)(=O)c2ccc3[nH]c(=O)oc3c2)c1 > 100 µM, O=C(CN1C(=O)/C(=C/c2ccco2)SC1=S)NC1C=CS(=O)(=O)C1 (stereo not given) > 100 µM, O=C(CN1C(=O)/C(=C\c2ccco2)SC1=S)Nc1ccccc1C(=O)O > 100 µM, CC(C(=O)NCCc1ccc(O)cc1)N1C(=O)/C(=C/c2ccco2)SC1=S (stereo not given) > 100 µM, N#Cc1c(SCC(=O)Nc2ccccc2C(F)(F)F)sc2c(O)cc(=O)[nH]c12 > 100 µM, COc1cccc(NC(=O)CN(C)S(=O)(=O)c2ccc3[nH]c(=O)oc3c2)c1 > 100 µM, COc1cc(C(=O)NNC(=O)c2n[nH]c3ccccc23)cc(OC)c1OC > 100 µM
